Assays:
[1] = 14-day stress study of DHEA forms I and II, monitored by XRPD; assay type: physicochemical; details: for Stability (summary): ambient conditions and heat at non-saturating humidity; for Stability to solid form conversion: ambient temperature and 50° C., two weeks, RH as high as 84%
Procedure: Little weight gain (<0.8%) is observed in these samples. (Weight losses observed at 50° C. could be due to loss of residual solvent, sublimation of sample, and/or thermal degradation.)
X-Ray Powder Diffraction (XRPD). XRPD analyses were carried out on a Siemens D-500 X-ray Powder Diffractometer-Kristaloflex or a Shimadzu XRD-6000 X-ray powder diffractometer using Cu Kα radiation (1.5406 Å).
The Siemens instrument was equipped with an IBM-compatible interface and utilized DIFFRAC AT software (SOCABIM, 1994). Slits I and II were set at 1° and the radiation was electronically filtered by a Kevex Psi Peltier cooled silicon detector with slits III at 1° and IV at 0.15°. A continuous theta-two theta scan at 6°/min (0.4 sec/0.04° step) from 4 to 40°2θ was used. A silicon standard was analyzed each day to check the instrument alignment. Each sample was prepared by pressing a small amount of the powder onto a zero-background quartz-in-aluminum sample holder.
The Shimadzu instrument was equipped with a fine-focus X-ray tube. The tube power was set at 40 kV, 40 mA. The divergence and scattering slits were set at 1° and the receiving slit was set at 0.15 mm. Diffracted radiation was detected by an NaI scintillation detector. A theta-two theta continuous scan at 3°/min (0.4 sec/0.02° step) from 4 to 40°2θ was used. A silicon standard was analyzed each day to check the instrument alignment, and an alumina standard was analyzed each day to check the X-ray tube output. Each sample was prepared for analysis by pressing it with a spatula onto a glass or quartz sample holder.

[2] = Solid form stability of form I after 1, 2, 3 and 6 months, by 13C-SSNMR; assay type: physicochemical
Procedure: Solid State NMR Method (SSNMR). SSNMR spectra were obtained on a General Electric Omega PSG, 100 MHz spectrometer using about 50 mg of sample in a 5-mm diameter zirconia rotor. High-power proton decoupling and cross-polarization with magic-angle spinning at approximately 5 kHz were used. The magic angle was adjusted using the Br signal of KBr by detecting the side bands as described by Frye and Maciel, 1982. The chemical shifts were referenced externally to the CH resonance of adamantane at 29.50 ppm. Curve fitting of selected peaks for integration was performed as described by MacDonald (1980). The following peaks were used to measure forms I, II and VI: sum of peaks at 118.8 and 120.3 ppm (form I), peak at 119.8 ppm (form II), and peak at 118.5 ppm (form VI).

[3] = Single dose pharmacokinetic study of orally administered DHEA formulations; assay type: in vivo, human; details: conclusion drawn from the single dose study
Procedure: Example 2 describes a study in which 34 healthy postmenopausal women were administered orally one of three formulations of DHEA, each prepared from commercially available DHEA, in capsular form. The formulations were administered in single dosages of four opaque, size 2 capsules, each capsules containing 50 mg DHEA, 152 mg lactose (169 mg for formulation 3), 108 mg corn starch, and 3 mg magnesium stearate.
Blood samples were collected prior to and at various times after administration, and the levels of DHEA and DHEA-S were measured by immunoassay. […]
AUC (area under curve) is an indicator of extent of absorption; Cmax and Tmax are indicators of rate of absorption. Serum DHEA concentrations for all samples were above the assay limit of quantification. […]
DHEA levels were determined by radioimmunoassay (RIA) at Endocrine Sciences Inc., after non-polar solvent extraction. […] Internal assay controls were monitored via control charts. […]. […]
Adjusted serum levels were calculated by subtracting baseline (average of −0.5 hr and 0 hr serum levels). […] For DHEA and DHEA-S, the peak serum concentration (Cmax) and time to peak concentration (Tmax) were assessed from the concentration-time data. […]

[4] = 25° C. (ambient temperature), 95% RH

| SMILES | Final Form (by XRPD), 14 days [1, 4] | Wt change, % (14 days) ([1]; 25° C., 58% RH, 14 days) [%] | Wt change, % (14 days) ([1]; 25° C., 75% RH, 14 days) | Wt change, % (14 days) ([1]; 25° C., 84% RH, 14 days) | Wt change, % (14 days) ([1]; 25° C., 95% RH, 14 days) | Wt change, % (14 days) ([1]; 50° C., 58% RH, 14 days) [%] | Wt change, % (14 days) ([1]; 50° C., 75% RH, 14 days) [%] | Wt change, % (14 days) ([1]; 50° C., 84% RH, 14 days) [%] | Final Form (by XRPD), 14 days ([1]; 50° C., 95% RH) | Wt change, % (14 days) ([1]; 50° C., 95% RH, 14 days) | Stability (summary) [1] | Stability to solid form conversion [1] | Overall stability, form I compared with form II ([1]; summary of the stability studies) | Final Form (by 13C-SSNMR), 1, 2, 3, and 6 months ([2]; 25° C., 58% RH) | Final Form (by 13C-SSNMR), 1, 2, 3, and 6 months ([2]; 40° C. (footnote b), 75% RH) | Bioavailability when administered orally [3] | Final Form (by XRPD), 14 days ([1]; 50° C., 75% RH) | Final Form (by XRPD), 14 days ([1]; 50° C., 84% RH) | Solid form conversion ([1]; 50°, RH of 75% or greater, 14 days) |
| --- | --- | --- | --- | --- | --- | --- | --- | --- | --- | --- | --- | --- | --- | --- | --- | --- | --- | --- | --- |
| C[C@]12CC[C@H](O)CC1=CC[C@@H]1[C@@H]2CC[C@]2(C)C(=O)CC[C@@H]12 [Form I, dehydroepiandrosterone] | stable | −0.6 | +0.3% | +0.1% | +0.2% | −1 | −3 | −2 | converted to S2 | +1% | stable | stable to solid form conversion | greater overall stability | remained stable to solid form conversion | remained stable to solid form conversion | high bioavailability | – | – | – |
| C[C@]12CC[C@H](O)CC1=CC[C@@H]1[C@@H]2CC[C@]2(C)C(=O)CC[C@@H]12 [Form II, dehydroepiandrosterone] | converted to S2 | 0 | −0.3% | +0.2% | +5% | −1 | −2 | −0.3 | II + S1 | +1% | stable | stable to solid form conversion | – | – | – | high bioavailability | II + S1 | II + S1 | partially converted to S1 |

From patent publication US7045513B1, “DHEA composition and method” (priority 1999, dated 2006)
